# Source: article PMC7419507, “In vitro Cas9-assisted editing of modular polyketide synthase genes to produce desired natural product derivatives” (Nature Communications, 2020)
# “And” between values parts separate entries of the source, which are not always exact repeats. Equal values may be shown once.
# Assays:
# [1] = Cytotoxicity assay (CellTiter-Glo, 72 h), Jurkat; assay type: cell-based; details: human, Jurkat cells (T lymphoma), raw data (replicates)
# Outline: (§1)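 1000 cells/well; 4 h settle, then 2-fold serial dilutions (0.5% DMSO final), 72 h, 37 °C/5% CO2. Read-out: CellTiter-Glo luminescence. Media: RPMI1640 + 10% FBS (Jurkat, MESO-1; Jurkat also Glutamax), DMEM + 10% FBS (SKOV-3).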
# [2] = tested on: T lymphoma Jurkat cells; assay: Cytotoxicity assay (CellTiter-Glo, 72 h), Jurkat; assay type: cell-based; details: raw data (replicates)
# Outline: as §1
# [3] = tested on: human ovarian adenocarcinoma SKOV-3 cells; assay: Cytotoxicity assay (CellTiter-Glo, 72 h), SKOV-3; assay type: cell-based; details: raw replicate data
# Outline: as §1
# [4] = Cytotoxicity assay (CellTiter-Glo, 72 h), SKOV-3; assay type: cell-based, human; details: human, raw replicate data, read-out: SKOV3 viability (%)
# Outline: as §1
# [5] = tested on: Jurkat, SKOV-3 and MESO-1 cells; assay: Cytotoxicity assay, statements for all tested cell lines together; assay type: cell-based; details: Jurkat, SKOV-3 and MESO-1 cells, 72 h
# Outline: as §1
# [6] = Cytotoxicity assay (CellTiter-Glo, 72 h), MESO-1; assay type: cell-based; details: human, MESO-1 malignant pleural mesothelioma cells, raw replicate data, read-out: MESO1 viability (%)
# Outline: as §1
# [7] = tested on: malignant pleural mesothelioma MESO-1 cells; assay: Cytotoxicity assay (CellTiter-Glo, 72 h), MESO-1; assay type: cell-based; details: raw replicate data
# Outline: as §1
compound,measurement,setting,value
COC1CC2CCC(C)C(O)(O2)C(=O)C(=O)N2CCCCC2C(=O)OC(C(C)CC2CCC(O)C(OC)C2)CC(O)CC(=O)C(C)C=C(C)C(O)CC(=O)C(C)CC(C)C=CC=CC=C1C (stereo not shown) [Compound 13],"viability at 72 h, 9.53674e-05 uM",[1]; conc 9.53674e-5 uM,100%
same,"viability at 72 h, 0.000190735 uM",[1]; conc 0.000190735 uM,100%
same,"viability at 72 h, 0.00038147 uM",[1]; conc 0.00038147 uM,108%
same,"viability at 72 h, 0.000762939 uM",[1]; conc 0.000762939 uM,103%
same,"viability at 72 h, 0.00152588 uM",[1]; conc 0.00152588 uM,98.1%
same,"viability at 72 h, 0.00305176 uM",[1]; conc 0.00305176 uM,102%
same,"viability at 72 h, 0.00610352 uM",[1]; conc 0.00610352 uM,100%
same,"viability at 72 h, 0.012207 uM",[1]; conc 0.012207 uM,99.4%
same,"viability at 72 h, 0.0244141 uM",[1]; conc 0.0244141 uM,103%
same,"viability at 72 h, 0.0488281 uM",[1]; conc 0.0488281 uM,91.3%
same,"viability at 72 h, 0.0976562 uM",[1]; conc 0.0976562 uM,69.5%
same,"viability at 72 h, 0.195312 uM",[1]; conc 0.195312 uM,47.2%
same,"viability at 72 h, 0.390625 uM",[1]; conc 0.390625 uM,37.5%
same,"viability at 72 h, 0.78125 uM",[1]; conc 0.78125 uM,31.7%
same,"viability at 72 h, 1.5625 uM",[1]; conc 1.5625 uM,30.7%
same,"viability at 72 h, 3.125 uM",[1]; conc 3.125 uM,30.2%
same,"viability at 72 h, 6.25 uM",[1]; conc 6.25 uM,29.2%
same,"viability at 72 h, 12.5 uM",[1]; conc 12.5 uM,30.8%
same,"viability at 72 h, 25 uM",[1]; conc 25 uM,24.7%
same,"viability at 72 h, 50 uM",[1]; conc 50 uM,2.2%
same,Jurkat viability (%),[2]; conc 9.53674e-5 uM,112.6% and 105.4%
same,Jurkat viability (%),[2]; conc 0.000190735 uM,101.3% and 101.6%
same,Jurkat viability (%),[2]; conc 0.00038147 uM,104.4% and 104.8%
same,Jurkat viability (%),[2]; conc 0.000762939 uM,96.6% and 102.2%
same,Jurkat viability (%),[2]; conc 0.00152588 uM,101.0% and 107.9%
same,Jurkat viability (%),[2]; conc 0.00305176 uM,103.0% and 101.6%
same,Jurkat viability (%),[2]; conc 0.00610352 uM,107.7% and 103.5%
same,Jurkat viability (%),[2]; conc 0.012207 uM,102.1% and 101.9%
same,Jurkat viability (%),[2]; conc 0.0244141 uM,102.7% and 105.0%
same,Jurkat viability (%),[2]; conc 0.0488281 uM,92.1% and 89.3%
same,Jurkat viability (%),[2]; conc 0.0976562 uM,67.5% and 74.1%
same,Jurkat viability (%),[2]; conc 0.195312 uM,42.7% and 42.9%
same,Jurkat viability (%),[2]; conc 0.390625 uM,37.1% and 36.6%
same,Jurkat viability (%),[2]; conc 0.78125 uM,31.2% and 32.9%
same,Jurkat viability (%),[2]; conc 1.5625 uM,32.3%
same,Jurkat viability (%),[2]; conc 3.125 uM,28.8% and 27.1%
same,Jurkat viability (%),[2]; conc 6.25 uM,32.0% and 30.5%
same,Jurkat viability (%),[2]; conc 12.5 uM,29.9%
same,Jurkat viability (%),[2]; conc 25 uM,25.3% and 24.9%
same,Jurkat viability (%),[2]; conc 50 uM,1.7% and 1.8%
same,SKOV3 viability (%),[3]; conc 9.53674e-5 uM,107.4% and 106.9%
same,SKOV3 viability (%),[3]; conc 0.000190735 uM,98.8% and 103.7%
same,SKOV3 viability (%),[3]; conc 0.00038147 uM,108.6% and 110.4%
same,SKOV3 viability (%),[3]; conc 0.000762939 uM,108.3% and 103.9%
same,SKOV3 viability (%),[3]; conc 0.00152588 uM,101.0% and 99.9%
same,SKOV3 viability (%),[3]; conc 0.00305176 uM,105.3% and 103.9%
same,SKOV3 viability (%),[3]; conc 0.00610352 uM,110.1% and 106.3%
same,SKOV3 viability (%),[3]; conc 0.012207 uM,101.2% and 96.8%
same,SKOV3 viability (%),[3]; conc 0.0244141 uM,104.0%
same,SKOV3 viability (%),[3]; conc 0.0488281 uM,98.0% and 96.8%
same,SKOV3 viability (%),[3]; conc 0.0976562 uM,97.2% and 95.3%
same,SKOV3 viability (%),[3]; conc 0.195312 uM,69.7% and 74.1%
same,SKOV3 viability (%),[3]; conc 0.390625 uM,69.6% and 63.1%
same,SKOV3 viability (%),[3]; conc 0.78125 uM,63.6% and 66.9%
same,SKOV3 viability (%),[3]; conc 1.5625 uM,66.7%
same,SKOV3 viability (%),[3]; conc 3.125 uM,68.3% and 74.5%
same,SKOV3 viability (%),[3]; conc 6.25 uM,79.3% and 78.5%
same,SKOV3 viability (%),[3]; conc 12.5 uM,75.9%
same,SKOV3 viability (%),[3]; conc 25 uM,73.5% and 81.4%
same,SKOV3 viability (%),[3]; conc 50 uM,55.5% and 58.9%
same,"viability at 72 h, 9.53674e-05 uM","[4]; SKOV-3 cells (ovarian adenocarcinoma), conc 9.53674e-5 uM",101%
same,"viability at 72 h, 0.000190735 uM","[4]; SKOV-3 cells (ovarian adenocarcinoma), conc 0.000190735 uM",105%
same,"viability at 72 h, 0.00038147 uM","[4]; SKOV-3 cells (ovarian adenocarcinoma), conc 0.00038147 uM",103%
same,"viability at 72 h, 0.000762939 uM","[4]; SKOV-3 cells (ovarian adenocarcinoma), conc 0.000762939 uM",104%
same,"viability at 72 h, 0.00152588 uM","[4]; SKOV-3 cells (ovarian adenocarcinoma), conc 0.00152588 uM",106%
same,"viability at 72 h, 0.00305176 uM","[4]; SKOV-3 cells (ovarian adenocarcinoma), conc 0.00305176 uM",104%
same,"viability at 72 h, 0.00610352 uM","[4]; SKOV-3 cells (ovarian adenocarcinoma), conc 0.00610352 uM",104%
same,"viability at 72 h, 0.012207 uM","[4]; SKOV-3 cells (ovarian adenocarcinoma), conc 0.012207 uM",100%
same,"viability at 72 h, 0.0244141 uM","[4]; SKOV-3 cells (ovarian adenocarcinoma), conc 0.0244141 uM",97.8%
same,"viability at 72 h, 0.0488281 uM","[4]; SKOV-3 cells (ovarian adenocarcinoma), conc 0.0488281 uM",100%
same,"viability at 72 h, 0.0976562 uM","[4]; SKOV-3 cells (ovarian adenocarcinoma), conc 0.0976562 uM",93.5%
same,"viability at 72 h, 0.195312 uM","[4]; SKOV-3 cells (ovarian adenocarcinoma), conc 0.195312 uM",80.1%
same,"viability at 72 h, 0.390625 uM","[4]; SKOV-3 cells (ovarian adenocarcinoma), conc 0.390625 uM",72.3%
same,"viability at 72 h, 12.5 uM","[4]; SKOV-3 cells (ovarian adenocarcinoma), conc 12.5 uM",74%
same,"viability at 72 h, 25 uM","[4]; SKOV-3 cells (ovarian adenocarcinoma), conc 25 uM",76.6%
same,"viability at 72 h, 50 uM","[4]; SKOV-3 cells (ovarian adenocarcinoma), conc 50 uM",61.1%
same,"viability at 72 h, 0.78125 uM","[4]; SKOV-3 ovarian adenocarcinoma cells, conc 0.78125 uM",70.5%
same,"viability at 72 h, 1.5625 uM","[4]; SKOV-3 ovarian adenocarcinoma cells, conc 1.5625 uM",74.6%
same,"viability at 72 h, 3.125 uM","[4]; SKOV-3 ovarian adenocarcinoma cells, conc 3.125 uM",67.3%
same,"viability at 72 h, 6.25 uM","[4]; SKOV-3 ovarian adenocarcinoma cells, conc 6.25 uM",76.1%
same,"Effect on cell viability, in words",[5],slightly suppressed the cell viabilities
same,"viability at 72 h, 9.53674e-05 uM",[6]; conc 9.53674e-5 uM,107%
same,"viability at 72 h, 0.000190735 uM",[6]; conc 0.000190735 uM,109%
same,"viability at 72 h, 0.00038147 uM",[6]; conc 0.00038147 uM,103%
same,"viability at 72 h, 0.000762939 uM",[6]; conc 0.000762939 uM,96.5%
same,"viability at 72 h, 0.00152588 uM",[6]; conc 0.00152588 uM,103%
same,"viability at 72 h, 0.00305176 uM",[6]; conc 0.00305176 uM,101%
same,"viability at 72 h, 0.00610352 uM",[6]; conc 0.00610352 uM,108%
same,"viability at 72 h, 0.012207 uM",[6]; conc 0.012207 uM,101%
same,"viability at 72 h, 0.0244141 uM",[6]; conc 0.0244141 uM,95.9%
same,"viability at 72 h, 0.0488281 uM",[6]; conc 0.0488281 uM,92.5%
same,"viability at 72 h, 0.0976562 uM",[6]; conc 0.0976562 uM,82%
same,"viability at 72 h, 0.195312 uM",[6]; conc 0.195312 uM,74.6%
same,"viability at 72 h, 0.390625 uM",[6]; conc 0.390625 uM,77.6%
same,"viability at 72 h, 0.78125 uM",[6]; conc 0.78125 uM,68.5%
same,"viability at 72 h, 1.5625 uM",[6]; conc 1.5625 uM,71.4%
same,"viability at 72 h, 3.125 uM",[6]; conc 3.125 uM,70.6%
same,"viability at 72 h, 6.25 uM",[6]; conc 6.25 uM,68.1%
same,"viability at 72 h, 12.5 uM",[6]; conc 12.5 uM,69.4%
same,"viability at 72 h, 25 uM",[6]; conc 25 uM,61.7%
same,"viability at 72 h, 50 uM",[6]; conc 50 uM,32.5%
same,MESO1 viability (%),[7]; conc 9.53674e-5 uM,98.4% and 101.6%
same,MESO1 viability (%),[7]; conc 0.000190735 uM,99.7% and 102.2%
same,MESO1 viability (%),[7]; conc 0.00038147 uM,106.9% and 102.5%
same,MESO1 viability (%),[7]; conc 0.000762939 uM,98.2% and 93.2%
same,MESO1 viability (%),[7]; conc 0.00152588 uM,104.8% and 103.9%
same,MESO1 viability (%),[7]; conc 0.00305176 uM,98.6% and 103.9%
same,MESO1 viability (%),[7]; conc 0.00610352 uM,105.0% and 100.2%
same,MESO1 viability (%),[7]; conc 0.012207 uM,91.1%
same,MESO1 viability (%),[7]; conc 0.0244141 uM,101.5% and 98.1%
same,MESO1 viability (%),[7]; conc 0.0488281 uM,89.5% and 85.7%
same,MESO1 viability (%),[7]; conc 0.0976562 uM,82.3% and 85.5%
same,MESO1 viability (%),[7]; conc 0.195312 uM,72.4% and 76.8%
same,MESO1 viability (%),[7]; conc 0.390625 uM,77.4% and 73.9%
same,MESO1 viability (%),[7]; conc 0.78125 uM,67.0% and 66.3%
same,MESO1 viability (%),[7]; conc 1.5625 uM,65.2% and 74.0%
same,MESO1 viability (%),[7]; conc 3.125 uM,66.5% and 63.4%
same,MESO1 viability (%),[7]; conc 6.25 uM,73.7% and 75.2%
same,MESO1 viability (%),[7]; conc 12.5 uM,72.5% and 66.5%
same,MESO1 viability (%),[7]; conc 25 uM,64.3% and 66.3%
same,MESO1 viability (%),[7]; conc 50 uM,29.9% and 28.1%
